Data taken from BindingDB's records for doi:10.7270/Q2TX3CTT (Broad Institute, 2010).

Target: Glycogen synthase kinase-3 beta (Homo sapiens, UniProt P49841)
Experiment: concentration-response blocking of human GSK3B – biochemical, luminescence, cell-free homogeneous, retest, dose response (AID 434954)

Sequence of Glycogen synthase kinase-3 beta (P49841 whole entry): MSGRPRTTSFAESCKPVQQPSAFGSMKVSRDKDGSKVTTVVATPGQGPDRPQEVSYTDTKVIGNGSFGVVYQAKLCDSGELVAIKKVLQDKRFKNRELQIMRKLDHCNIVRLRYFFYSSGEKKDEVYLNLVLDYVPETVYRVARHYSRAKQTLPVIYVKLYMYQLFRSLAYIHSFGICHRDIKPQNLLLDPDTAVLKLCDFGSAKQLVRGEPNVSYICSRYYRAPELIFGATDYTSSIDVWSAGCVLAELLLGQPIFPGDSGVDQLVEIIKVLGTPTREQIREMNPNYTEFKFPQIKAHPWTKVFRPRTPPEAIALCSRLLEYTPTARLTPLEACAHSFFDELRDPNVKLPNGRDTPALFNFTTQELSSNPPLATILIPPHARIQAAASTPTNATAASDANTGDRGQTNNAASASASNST

Row | Structure (SMILES) | EC50 [µM]
1 | CN1CCN(CCCNC(=O)Nc2ccc([N+](=O)[O-])cc2)CC1 [N-[3-(4-methylpiperazin-1-yl)propyl]-N'-(4-nitrophenyl)urea] | > 300
2 | O=C(OCCCN1CCCCC1)c1ccc(O)cc1 [3-piperidin-1-ylpropyl 4-hydroxybenzoate] | > 300
3 | COC(=O)CSc1ccc2nnc(-c3ccc(F)cc3)n2n1 [methyl 2-[[3-(4-fluorophenyl)-[1,2,4]triazolo[4,3-b]pyridazin-6-yl]sulfanyl]ethanoate] | 9.3
4 | COC(=O)c1ccc(NC(C(=O)OC)C(C)C)c([N+](=O)[O-])c1 (centres undefined) [methyl 4-[(1-methoxy-3-methyl-1-oxidanylidene-butan-2-yl)amino]-3-nitro-benzoate] | > 300
5 | CC(C)Sc1nc2c(c(=O)[nH]1)C(c1cccs1)C1C(=O)CC(C)(C)CC1=N2 (centres undefined) [8,8-dimethyl-2-propan-2-ylsulfanyl-5-thiophen-2-yl-5,7,9,10-tetrahydro-1H-pyrimido[4,5-b]quinoline-4,6-dione] | > 300
6 | CN1CCN(C(=O)c2ccc(OCCOc3ccccc3)cc2)CC1 [(4-methylpiperazin-1-yl)-[4-(2-phenoxyethoxy)phenyl]methanone] | > 300
7 | CCN(CC)Cc1c(O)ccc2occ(C(=O)c3ccc(OC)cc3)c12 [[4-(diethylaminomethyl)-5-oxidanyl-1-benzofuran-3-yl]-(4-methoxyphenyl)methanone] | > 300
8 | O=C1Nc2cc(C(=O)NCCCN3CCCC3)ccc2S/C1=C\c1ccccc1 [(2Z)-3-oxidanylidene-2-(phenylmethylidene)-N-(3-pyrrolidin-1-ylpropyl)-4H-1,4-benzothiazine-6-carboxamide] | 5.9
9 | COc1ccc(OC)c(Nc2nc(NCc3ccco3)nc(N)c2[N+](=O)[O-])c1 [N'-(2,5-Dimethoxy-phenyl)-N-furan-2-ylmethyl-5-nitro-pyrimidine-2,4,6-triamine] | > 300
10 | NC(=O)c1ccc(Oc2ccc(Cl)c3ccccc23)c([N+](=O)[O-])c1 [4-(4-chloronaphthalen-1-yl)oxy-3-nitrobenzamide] | > 300
11 | CCNc1nc(N)c(C(=C(C#N)C#N)c2ccccc2)s1 | > 300
12 | Cc1c(C(=O)O)cccc1-n1c(C)cc(CN=Nc2ccc([N+](=O)[O-])cn2)c1C | 21.3
13 | CCOc1ccccc1C=NNC(=O)c1nnn(-c2nonc2N)c1CN1CCCCCC1 | 0.105
14 | CN(Cc1ccccc1)S(=O)(=O)c1ccc2c(c1)NC(=O)CC(=O)N2 [N-benzyl-N-methyl-2,4-dioxo-1,5-dihydro-1,5-benzodiazepine-7-sulfonamide] | > 300
15 | O=C(O)c1cc(N=NCc2ccc(-c3ccc(F)cc3)o2)ccc1Cl [2-chloranyl-5-[2-[[5-(4-fluorophenyl)furan-2-yl]methylidene]hydrazinyl]benzoic acid] | > 300
16 | CC1CN(C(=O)CCc2cc(C(C)(C)C)c(O)c(C(C)(C)C)c2)CC(C)O1 (centres undefined) [3-(3,5-ditert-butyl-4-hydroxyphenyl)-1-(2,6-dimethyl-4-morpholinyl)-1-propanone] | > 300
17 | CCCc1cc(=O)oc2cc(C)c(CN3CCCC3)c(O)c12 [5-hydroxy-7-methyl-4-propyl-6-(1-pyrrolidinylmethyl)-2H-chromen-2-one] | > 300
18 | Cc1ccccc1CSc1nnc(-c2ccncc2)o1 [2-[(2-methylphenyl)methylsulfanyl]-5-pyridin-4-yl-1,3,4-oxadiazole] | 22.1
19 | Cc1ccc2nc3c(cc2c1)c(NC(=O)c1ccccn1)nn3CC(C)C | > 300
20 | N#CCCn1cc(C(=O)O)c(-c2cccc([N+](=O)[O-])c2)n1 [SMR000372597] | > 300
21 | Cc1ccc(NC(=O)CSc2nccn2C)cc1F [N-(3-fluoro-4-methylphenyl)-2-[(1-methyl-2-imidazolyl)thio]acetamide] | > 300
22 | O=C(c1cccnc1)C1CCCN(Cc2nc(Cc3ccccc3)no2)C1 (centres undefined) [[1-[[3-(phenylmethyl)-1,2,4-oxadiazol-5-yl]methyl]-3-piperidinyl]-(3-pyridinyl)methanone] | > 300
23 | NS(=O)(=O)c1ccc(-c2ccc(/C=C3\NC(=S)NC3=O)o2)cc1 | 46.5
24 | Cc1cccc(/C=C2/Sc3ccc(C(=O)NCCCN4CCOCC4)cc3NC2=O)c1 [(2E)-2-[(3-methylphenyl)methylidene]-N-(3-morpholin-4-ylpropyl)-3-oxidanylidene-4H-1,4-benzothiazine-6-carboxamide] | > 300
25 | CCCCc1cc(=O)oc2cc(OCC(=O)N(CC)CC)ccc12 | > 300
26 | O=Cc1cn(-c2ccccc2)nc1-c1ccc(F)cc1 [3-(4-fluorophenyl)-1-phenyl-1H-pyrazole-4-carbaldehyde] | > 300
27 | O=C(NC1CCCCC1)C(c1ccc(F)cc1)N(Cc1ccccc1)C(=O)CN1C(=O)c2ccccc2S1(=O)=O (centres undefined) [N-cyclohexyl-2-(4-fluorophenyl)-2-[[1-oxo-2-(1,1,3-trioxo-1,2-benzothiazol-2-yl)ethyl]-(phenylmethyl)amino]acetamide] | > 300
28 | c1ccc(Nc2ccnc(Nc3ccccc3)n2)cc1 [N*2*,N*4*-Diphenyl-pyrimidine-2,4-diamine] | 37.6
29 | N#Cc1c2n(c3c(N)ncnc13)CCCCC2 [4-Amino-6,7,8,9-tetrahydro-5H-1,3,4b-triaza-benzo[a]azulene-10-carbonitrile] | > 300
30 | CN(C)Cc1c(O)ccc2c(=O)c(-c3ccccc3)c(C(F)(F)F)oc12 | > 300

Second part, the compound after the results:

Row | EC50 [µM] | Structure (SMILES)
31 | > 300 | COC(=O)C1=C(C)N(CCCC(=O)O)C(=O)NC1c1ccc([N+](=O)[O-])cc1 (centres undefined) [MLS000562939]
32 | > 300 | CCOc1ccccc1Nc1cc(C)nc2ccc(C)cc12 [SMR000473096]
33 | 21.5 | Nc1ccc(O)c2c(=O)cc(-c3ccccc3Cl)oc12 [MLS000518334]
34 | > 300 | Cc1cc(NC(=O)c2noc3c2CCc2ccccc2-3)n(-c2ccccc2)n1 [MLS000116423]
35 | 8.4 | COc1ccc(CC(=O)Nc2ncc([N+](=O)[O-])s2)cc1OC [SMR000288398]
36 | > 300 | Cc1ccc(C=NNC(=O)c2cncc(Br)c2)o1 [SMR000226283]
37 | 29.5 | COc1ccc2nc(C)cc(N3CCN(c4ccccc4)CC3)c2c1 [SMR000595708]
38 | 27 | O=C(Nc1ccccc1)Nc1ncc([N+](=O)[O-])s1 [MLS001018461]
39 | > 300 | CCCc1cc(C(=O)Nc2cc(Br)ccc2O)no1 [MLS000116375]
40 | > 300 | Cc1cc(N2CCN(C(=O)c3ccco3)CC2)c2ccccc2n1 [SMR000460267]
41 | 21.6 | COc1ccc2occ(C(=O)c3ccc(N=C(C)N(C)C)cc3)c2c1 [SMR000104711]
42 | > 300 | Cc1cc(C(=O)OCCN2C(=O)c3ccccc3C2=O)c2ccccc2n1 [MLS000565821]
43 | 113 | COc1ccc2nc(NC(=O)CSc3nc4cccnc4n3C)sc2c1 [MLS000072990]
44 | 4 | Nc1nonc1-n1nnc(C(=O)NN=Cc2cccc(Cl)c2)c1CN1CCCCCC1 [MLS000950585]
45 | > 300 | O=C(C(Cc1ccccc1)n1cccc1)N1CCN(c2cccc(Cl)c2)CC1 (centres undefined) [SMR000127921]
46 | 5.82 | Nc1nc(NCC2CCCO2)nc(Nc2ccc(F)cc2)c1[N+](=O)[O-] (centres undefined) [SMR000219528]
47 | > 300 | COc1ccc(C(=O)N/C(=C\c2ccco2)C(=O)NCCN2CCOCC2)cc1 [MLS000923740]
48 | > 300 | COc1ccc(-c2nn(-c3ccccc3)cc2C(=O)O)cc1 [SMR000015534]
49 | > 300 | N#Cc1c(-c2ccccc2)nc(-c2cccnc2)[nH]c1=O [MLS001165441]
